Read-outs that look alike come from different tables or passages of the source. One block for each compound: values may come before it.
Tests used:
human recombinant DRD3 = molecular target: T1, human recombinant DRD3 (Homo sapiens, UniProt P35462); experiment: [3H]-methylspiperone binding inhibition, human recombinant DRD3 in CHO cells (Eurofins Discovery assay #48); conditions: for inhibition at 10 µM: 10 μM competitor, single concentration, mean of two independent experiments, CHO cells, read-out: percentage of inhibition of [3H]-methylspiperone binding; for ligand efficiency (LE): SpaceDock hits, LE as in ref 53; for Ki: from six concentrations dose-response curves, read-out: inhibition constant (Ki)
T1 construct: host or cells: CHO cells
T1 sequence (P35462 whole entry): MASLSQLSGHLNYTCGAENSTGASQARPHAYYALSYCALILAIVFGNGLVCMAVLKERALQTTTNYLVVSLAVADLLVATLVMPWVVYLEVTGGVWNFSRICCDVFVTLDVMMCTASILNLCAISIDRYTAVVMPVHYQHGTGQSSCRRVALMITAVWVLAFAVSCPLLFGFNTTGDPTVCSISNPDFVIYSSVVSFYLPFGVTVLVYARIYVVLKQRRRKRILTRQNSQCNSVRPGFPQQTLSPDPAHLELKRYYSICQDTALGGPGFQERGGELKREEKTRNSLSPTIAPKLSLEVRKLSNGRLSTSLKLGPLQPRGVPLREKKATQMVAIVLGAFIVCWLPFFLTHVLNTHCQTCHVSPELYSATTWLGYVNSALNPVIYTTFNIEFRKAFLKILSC
Experimental: Fig. S8. Binding of six SpaceDock hits to the human dopamine D3 receptor, expressed by the
percentage of inhibition of [3H]‐methylspiperone binding to human recombinant DRD3 in CHO cells
(Eurofins‐Discovery assay #48). Inhibition constants (Ki) were determined from six concentrations

human DRD3 = conditions: cited from earlier work

SMILES: CCc1ccc2occ(C(=O)NCC3CCCN(CC)C3)c2c1 (stereo not drawn) [#33]
inhibition at 10 µM (human recombinant DRD3): 34.3 ± 1.3%

SMILES: CCCN(CCC)CCNC(=O)C1CCc2cnn(C)c2C1 (stereo not drawn) [#35]
inhibition at 10 µM (human recombinant DRD3): 13.7 ± 1.2%

SMILES: CCCN1CCCC1CNC(=O)c1c[nH]cc1-c1ccccc1 (stereo not drawn) [#66]
inhibition at 10 µM (human recombinant DRD3): 88.2 ± 0.8%
ligand efficiency (LE) (human recombinant DRD3): 0.40
Ki (human recombinant DRD3): 0.32 µM

SMILES: CCc1oc(C)cc1C(=O)NCC1CCN(CC)CC1 [#97]
inhibition at 10 µM (human recombinant DRD3): 13.6 ± 0.2%

SMILES: Cc1nc2sccn2c1C(=O)NCC1CCCCC1N1CCCC1 (stereo not drawn) [#215]
inhibition at 10 µM (human recombinant DRD3): 4.7 ± 1.8%

SMILES: CCN1CCC[C@H]1CNC(=O)c1c(-c2ccccc2)noc1C [#239]
inhibition at 10 µM (human recombinant DRD3): 3.5 ± 3.1%

SMILES: Cc1ccc(C(CNC(=O)c2cc(C)nc3c2cnn3C)N2CCCC2)cc1 (stereo not drawn) [#252]
inhibition at 10 µM (human recombinant DRD3): 26.2 ± 0.8%

SMILES: CCN(CC)CCNC(=O)c1cc(Cl)c(N)cc1OC [CHEMBL86]
Ki (human DRD3; closest ChEMBL ligand): 0.023 µM

SMILES: COc1cc2c(c(C(=O)NC[C@H]3CCCN3Cc3ccccc3)c1)OCC2 [CHEMBL148352]
Ki (human DRD3; closest ChEMBL ligand): 0.12 µM

SMILES: Cc1ccc(C)c(C(=O)NCCCCN2CCN(c3cc(C)ccc3C)CC2)c1 [CHEMBL1258495]
Ki (human DRD3; closest ChEMBL ligand): 0.028 µM

SMILES: C#CC1CCC(N(CCC)CCCCNC(=O)c2ccc(OCCCc3cnn(CCCC)n3)c(OC)c2)CC1 (stereo not drawn) [CHEMBL2397478]
Ki (human DRD3; closest ChEMBL ligand): 0.001 µM

SMILES: CCCN(CCCCNC(=O)c1cccc2cc[nH]c12)CC1CC1c1cccc(F)c1 (stereo not drawn) [CHEMBL4590839]
Ki (human DRD3; closest ChEMBL ligand): 0.0188 µM

SMILES: CCc1cc(Cl)c(OC)c(C(=O)NC[C@@H]2CCCN2CC)c1O [Eticlopride, eticlopride]
Ki (human DRD3; eticlopride, in Figure 4A): 0.00012 µM

Now from value to compound:

inhibition at 10 µM (human recombinant DRD3): 95.1 ± 1.1%
ligand efficiency (LE) (human recombinant DRD3): 0.40
Ki (human recombinant DRD3): 0.36 µM
SMILES: CCc1cc2c(c(C(=O)NCCN(C(C)C)C3CC3)c1)OCC2 [#1]

inhibition at 10 µM (human recombinant DRD3): 90.7 ± 1.6%
ligand efficiency (LE) (human recombinant DRD3): 0.36
Ki (human recombinant DRD3): 1.4 µM
SMILES: CCCN(CCC)CCNC(=O)c1cccc2c(C)c(C)[nH]c12 [#25]

inhibition at 10 µM (human recombinant DRD3): 21.3 ± 0.4%
SMILES: CC(C)N(CCNC(=O)c1cn(C)nc1C1CCOC1)C1CC1 (stereo not drawn) [#36]

inhibition at 10 µM (human recombinant DRD3): 80.2 ± 0.5%
ligand efficiency (LE) (human recombinant DRD3): 0.39
Ki (human recombinant DRD3): 1.57 µM
SMILES: CCCN(CCNC(=O)c1cccc2sccc12)C(C)C [#107]

inhibition at 10 µM (human recombinant DRD3): -5.1 ± 4.5%
SMILES: CCN(CC)CC(CC)(CC)NC(=O)c1cccc2nc(C)sc12 [#110]

inhibition at 10 µM (human recombinant DRD3): 88.7 ± 0.1%
ligand efficiency (LE) (human recombinant DRD3): 0.43
Ki (human recombinant DRD3): 0.401 µM
SMILES: CCCN(CC)CCNC(=O)c1cc(Br)cc2[nH]cnc12 [#142]

inhibition at 10 µM (human recombinant DRD3): 72.6 ± 0.9%
ligand efficiency (LE) (human recombinant DRD3): 0.39
Ki (human recombinant DRD3): 1.65 µM
SMILES: CCCN(CC)CCNC(=O)c1nn(C)c2c1CSCC2 [#161]

inhibition at 10 µM (human recombinant DRD3): 44.4 ± 0.8%
SMILES: CCCN(CCC)CCNC(=O)c1cccc2oc(C)nc12 [#256]

Reference: publication PMC10979501, “Protein Structure-Based Organic Chemistry-Driven Ligand Design from Ultralarge Chemical Spaces” (ACS Central Science, 2024)
